Data taken from patent US20250049786A1, “DOPAMINE D3/D2 RECEPTOR MODULATING COMPOUNDS” (Richter Gedeon Nyrt., priority 2023, published 2025).

Key:
[1] = Thermodynamic solubility study (RT, 24 hours); format: physicochemical; conditions: PBS pH = 7.4, 24 hours
Procedure: (§1) The resulted mixtures were shaken at room temperature (RT) for 24 hrs (to the solution equilibrium) and were filtrated on a Millipore MultiSreen Filter Plate (0.45 μ). Concentrations of the filtrates were determined by LC/UV/MS based on a 5-point calibration. (When the solid material dissolved totally in the aqueous test medium the result should be considered as a minimal value.) Results are shown in Table 2.

[2] = Thermodynamic solubility study (37° C., 4 hours); format: physicochemical; conditions: PBS pH = 7.4, 4 hours
Procedure: as §1, with “mixtures/oversaturated solutions are” for “mixtures were”, “37° C.” for “room temperature (RT)”, “4” for “24”, “are” for “were”, “μm).” for “μ).”

human 5-HT2A receptor = human 5-HT2A receptor (Homo sapiens (Human), UniProt P28223); assay: Competitive binding assay at human 5-HT2A receptors ([3H]ketanserin); conditions: CHO-K1 membranes, 1 nM [3H]ketanserin
Chain of human 5-HT2A receptor (P28223 whole entry): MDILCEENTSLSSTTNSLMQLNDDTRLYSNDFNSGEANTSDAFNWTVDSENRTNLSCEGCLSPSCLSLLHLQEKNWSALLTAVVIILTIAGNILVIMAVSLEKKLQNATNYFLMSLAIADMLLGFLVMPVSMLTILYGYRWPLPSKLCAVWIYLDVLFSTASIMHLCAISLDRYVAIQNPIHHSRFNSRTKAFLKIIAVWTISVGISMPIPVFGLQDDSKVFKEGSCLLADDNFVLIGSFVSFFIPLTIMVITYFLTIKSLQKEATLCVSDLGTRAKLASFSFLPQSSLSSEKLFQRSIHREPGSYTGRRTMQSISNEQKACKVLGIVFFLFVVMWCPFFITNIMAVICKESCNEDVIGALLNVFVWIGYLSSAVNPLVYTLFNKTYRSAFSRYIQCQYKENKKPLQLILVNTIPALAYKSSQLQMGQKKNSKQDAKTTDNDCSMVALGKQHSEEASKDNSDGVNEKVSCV
Procedure: Radioactivity was determined with a MicroBeta^2® microplate counter (PerkinElmer).

[3] = system: Phencyclidine-induced hypermotility in rats; assay: Phencyclidine-induced hypermotility in rats; format: in vivo, rat; conditions: minimum effective dose, time spent with ambulation over one hour
Procedure: Spontaneous locomotor activity was measured using a six-channel activity monitor manufactured by Experimetria Ltd. (Budapest, HU). […] Additional arrays of photocells (30 pairs) were placed along opposite sides of the cage at different heights (6.5 cm, 12 cm, 18 cm and 23 cm) in order to detect rearing responses.
Test compounds were administered to study animals either orally or subcutaneously, with ten animals per treatment group. In these studies, male Harlan-Wistar rats (Toxi-Coop, Budapest, HU) weighing 190-210 grams were used. After oral administration of test compound or vehicle, animals were individually habituated to the activity monitors for 30 minutes. In the cases of subcutaneous administration of test compounds, rats were first habituated for 15 minutes to the activity monitors, then treated with the test compound or vehicle followed by replacing them into the activity monitors for an additional 15-minute period of habituation. […]
Data were analyzed using GraphPad® Prism® 9 software (GraphPad, San Diego, CA, USA). […] Drug effect was evaluated using Analysis of Variance (ANOVA, or Welch's ANOVA when appropriate) followed by Dunnett's multiple comparisons test. When appropriate, the ED50 value was determined from percent inhibition data from linear regression analysis.

human D3 receptors [4] = biological target: T1, human D3 receptors (Homo sapiens (Human), UniProt P35462); assay: Competitive binding assay at human D3 receptors using [3H]spiperone; conditions: CHO-K1 membranes, 0.7 nM [3H]spiperone
T1 sequence (P35462 whole entry): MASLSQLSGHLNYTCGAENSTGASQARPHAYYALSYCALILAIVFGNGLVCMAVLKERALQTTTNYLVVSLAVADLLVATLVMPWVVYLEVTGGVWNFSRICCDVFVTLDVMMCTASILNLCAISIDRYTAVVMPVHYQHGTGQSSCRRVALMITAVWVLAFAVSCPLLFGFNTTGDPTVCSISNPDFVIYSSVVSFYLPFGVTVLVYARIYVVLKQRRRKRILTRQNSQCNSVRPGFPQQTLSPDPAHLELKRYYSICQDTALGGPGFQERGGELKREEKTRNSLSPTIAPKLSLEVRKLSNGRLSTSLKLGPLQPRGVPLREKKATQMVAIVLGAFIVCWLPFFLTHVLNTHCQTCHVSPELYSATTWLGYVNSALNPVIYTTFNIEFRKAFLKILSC
Procedure: Cells were scraped from the plates and centrifuged at 1000×g. […] The supernatant was collected and centrifuged at 41,000×g. The supernatant was discarded, and the pellet was resuspended in above buffer.
IC50 values were determined by a non-linear, least squares regression analysis using MathIQ™ (ID Business Solutions Ltd., Surrey, UK).

human D2L receptors [5] = biological target: T2, human D2L receptors (Homo sapiens (Human), UniProt P14416); assay: Competitive binding assay at human D2L receptors using [3H]raclopride; conditions: CHO-K1 membranes, 2 nM [3H]raclopride
T2 sequence (P14416 whole entry): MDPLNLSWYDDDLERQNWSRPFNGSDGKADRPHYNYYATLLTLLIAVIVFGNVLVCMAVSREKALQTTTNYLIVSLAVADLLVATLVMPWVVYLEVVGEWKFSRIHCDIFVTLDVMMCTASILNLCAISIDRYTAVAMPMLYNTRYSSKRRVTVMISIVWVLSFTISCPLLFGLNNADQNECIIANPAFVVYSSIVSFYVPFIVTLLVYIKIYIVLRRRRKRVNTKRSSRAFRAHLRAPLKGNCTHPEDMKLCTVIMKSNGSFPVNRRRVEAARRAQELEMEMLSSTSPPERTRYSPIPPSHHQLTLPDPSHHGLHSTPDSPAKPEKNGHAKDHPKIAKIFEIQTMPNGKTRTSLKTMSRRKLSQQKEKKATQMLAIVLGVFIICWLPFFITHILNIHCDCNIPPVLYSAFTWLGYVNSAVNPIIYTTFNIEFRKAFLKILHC
Procedure: (§2) The membrane preparation was then aliquoted and stored at −70° C.

human D2L receptors [6] = biological target: T2, human D2L receptors; assay: Competitive binding assay at human D2L receptors using [3H]spiperone; conditions: CHO-K1 membranes, 0.16 nM [3H]spiperone
Procedure: CHO-K1 cells expressing human recombinant D2L receptors were washed with phosphate-buffered saline (PBS). Cells were scraped from the plates and centrifuged at 1000×g. Cells were disrupted using a Teflon® pestle homogenizer in buffer containing 25 mM Tris-HCl, pH=7.4, 6 mM MgCl2, 1 mM EDTA, 10 mM phenylmethylsulfonyl fluoride (PMSF). The resulting suspension was centrifuged at 1000×g. The supernatant was collected and centrifuged at 41,000×g. The supernatant was discarded, and the pellet was resuspended in above buffer. The membrane preparation was then aliquoted and stored at −70° C.
Non-specific binding (NSB) was determined in the presence of 10 μM haloperidol (Sigma-Aldrich). After incubation, samples were filtered over UniFilter® GF/C plates (PerkinElmer), washed and Microscint™-20 scintillation cocktail was added. Radioactivity was determined with a MicroBeta^2® microplate counter (PerkinElmer).
From scintillation counts, NSB was subtracted to yield specific binding which was normalized to vehicle-treated samples and converted to displacement % values. IC50 values were determined by a non-linear, least squares regression analysis using MathIQ™ (ID Business Solutions Ltd., Surrey, UK).

human D3 receptors [7] = biological target: T1, human D3 receptors; assay: Competitive binding assay at human D3 receptors using [3H]raclopride; conditions: CHO-K1 membranes, ca. […] [3H]raclopride
Procedure: as §2

## CCOCN(C)C(=O)N[C@H]1CC[C@H](CCN2CCN(c3cccc(Cl)c3Cl)CC2)CC1 [Example 1, N′-[(1r,4r)-4-{2-[4-(2,3-dichlorophenyl)piperazin-1-yl]ethyl}cyclohexyl]-N-(ethoxymethyl)-N-methylurea]
[1]
  Thermodynamic sol.: 45.3 ± 0.6 µM
[2]
  Thermodynamic sol.: 10.9 ± 0.3 µM
Human 5-HT2A receptor
  5-HT2A pKi: 7.64
[3]
  PCP (MED, mg/kg): 0.4 mg/kg

## COCN(C)C(=O)N[C@H]1CC[C@H](CCN2CCN(c3cccc(Cl)c3Cl)CC2)CC1 [Example 2, N′-[(1r,4r)-4-{2-[4-(2,3-dichlorophenyl)piperazin-1-yl]ethyl}cyclohexyl]-N-(methoxymethyl)-N-methylurea]
Human D3 receptors [4]
  D3 pKi [3H] spiperone: 9.77
Human D2L receptors [5]
  D2L pKi [3H]raclopride: 8.90
[1]
  Thermodynamic sol.: 50.93 ± 2.3 µM
[2]
  Thermodynamic sol.: 58.93 ± 5.32 µM
Human D2L receptors [6]
  D2L pKi [3H]spiperone: 8.93
Human 5-HT2A receptor
  5-HT2A pKi: 7.81
Human D3 receptors [7]
  D3 pKi [3H]raclopride: 9.15

## CCCOCN(C)C(=O)N[C@H]1CC[C@H](CCN2CCN(c3cccc(Cl)c3Cl)CC2)CC1 [Example 3, N′-[(1r,4r)-4-{2-[4-(2,3-dichlorophenyl)piperazin-1-yl]ethyl}cyclohexyl]-N-methyl-N-(propoxymethyl)urea]
Human D3 receptors [4]
  D3 pKi [3H] spiperone: 9.74
Human D2L receptors [5]
  D2L pKi [3H]raclopride: 8.94
[1]
  Thermodynamic sol.: 39.68 ± 2.15 µM
[2]
  Thermodynamic sol.: 30.50 ± 3.06 µM
Human D2L receptors [6]
  D2L pKi [3H]spiperone: 8.93

## CCCN(C)C(=O)N[C@H]1CC[C@H](CCN2CCN(c3cccc(Cl)c3Cl)CC2)CC1 [Ref. Ex. 1, N-[(1r,4r)-4-{2-[4 (2,3-dichlorophenyl)piperazin-1-yl]ethyl}cyclohexyl]-N-methyl-N-propylurea, reference compound]
[1]
  Thermodynamic sol.: 6.2 ± 0.3 µM
[2]
  Thermodynamic sol.: 4.9 ± 0.3 µM

## CN(C)C(=O)N[C@H]1CC[C@H](CCN2CCN(c3cccc(Cl)c3Cl)CC2)CC1 [Ref. Ex. 2, N′-[(1r,4r)-4-{2-[4-(2,3-dichlorophenyl)piperazin-1-yl]ethyl}cyclohexyl]-N,N-dimethylurea, reference compound]
[3]
  PCP (MED, mg/kg): 0.1 mg/kg
